Laboratory results taken from PMC6943423, “Structure-Activity Study of an All-D Antimicrobial Octapeptide D2D” (Molecules, 2019).
Square brackets hold non-standard residues; d marks the D form. Peptide text beside a SMILES is read from it. d1Nal = N[C@H](Cc1cccc2ccccc12)C(=O)O; dNle = CCCC[C@@H](N)C(=O)O; dDap = NC[C@@H](N)C(=O)O

Tested on: human red blood cells
Assay: Hemolytic activity
Format: cell-based
Settings: red cells of human, 1 h, 150
Method: The percentage of hemolysis at 150 μM was determined for all compounds as previously described. Briefly, two-fold serial dilutions (2.35 to 150 μM) of compounds in PBS were mixed with a 0.5% v/v suspension of fresh human red blood cells (RBC) in the same buffer. After 1 h incubation at 37 °C, plates were centrifuged and aliquots of the supernatants were transferred to clear ELISA plates. Absorbance at 414 nm was determined and normalised with respect to a negative (PBS, 0%) and positive (melittin, 100%) control.

Structure (SMILES)	%H (% Hemolysis at 150 µM)
CCCC[C@@H](NC(=O)[C@@H](CCCCN)NC(=O)[C@@H](Cc1cccc2ccccc12)NC(=O)[C@@H](Cc1cccc2ccccc12)NC(=O)[C@@H](Cc1ccccc1)NC(=O)[C@@H](Cc1cccc2ccccc12)NC(=O)[C@@H](CCCCN)NC(=O)[C@H](N)CCCCN)C(N)=O [Compound 9, kk(1-nal)f(1-nal)(1-nal)k(nle)-NH2] (H-[dK][dK][d1Nal][dF][d1Nal][d1Nal][dK][dNle]-NH2; N-terminus assumed)	20%
CCCC[C@@H](NC(=O)[C@@H](CCCCN)NC(=O)[C@@H](Cc1cccc2ccccc12)NC(=O)[C@@H](CN)NC(=O)[C@@H](Cc1ccccc1)NC(=O)[C@@H](Cc1cccc2ccccc12)NC(=O)[C@@H](CCCCN)NC(=O)[C@H](N)CCCCN)C(N)=O [Compound 10, kk(1-nal)f(dap)(1-nal)k(nle)-NH2] (H-[dK][dK][d1Nal][dF][dDap][d1Nal][dK][dNle]-NH2; N-terminus assumed)	28%
CCCC[C@@H](NC(=O)[C@@H](CCCCN)NC(=O)[C@@H](Cc1cccc2ccccc12)NC(=O)[C@@H](CCCC)NC(=O)[C@@H](Cc1ccccc1)NC(=O)[C@@H](Cc1cccc2ccccc12)NC(=O)[C@@H](CCCCN)NC(=O)[C@H](N)CCCCN)C(N)=O [Compound 11, kk(1-nal)f(nle)(1-nal)k(nle)-NH2] (H-[dK][dK][d1Nal][dF][dNle][d1Nal][dK][dNle]-NH2; N-terminus assumed)	33%
CCCC[C@@H](NC(=O)[C@@H](CCCCN)NC(=O)[C@@H](Cc1cccc2ccccc12)NC(=O)[C@@H](Cc1ccccc1)NC(=O)[C@@H](Cc1ccccc1)NC(=O)[C@@H](Cc1cccc2ccccc12)NC(=O)[C@@H](CCCCN)NC(=O)[C@H](N)CCCCN)C(N)=O [Compound 12, kk(1-nal)ff(1-nal)k(nle)-NH2] (H-[dK][dK][d1Nal][dF][dF][d1Nal][dK][dNle]-NH2; N-terminus assumed)	74%
CCCC[C@@H](NC(=O)[C@@H](CCCCN)NC(=O)[C@@H](Cc1cccc2ccccc12)NC(=O)[C@@H](CO)NC(=O)[C@@H](Cc1ccccc1)NC(=O)[C@@H](Cc1cccc2ccccc12)NC(=O)[C@@H](CCCCN)NC(=O)[C@H](N)CCCCN)C(N)=O [Compound 13, kk(1-nal)fs(1-nal)k(nle)-NH2] (H-[dK][dK][d1Nal][dF][dS][d1Nal][dK][dNle]-NH2; N-terminus assumed)	29%
CCCC[C@@H](NC(=O)[C@@H](CCCCN)NC(=O)[C@@H](Cc1cccc2ccccc12)NC(=O)[C@H](NC(=O)[C@@H](Cc1ccccc1)NC(=O)[C@@H](Cc1cccc2ccccc12)NC(=O)[C@@H](CCCCN)NC(=O)[C@H](N)CCCCN)[C@H](C)O)C(N)=O [Compound 14, kk(1-nal)ft(1-nal)k(nle)-NH2] (H-[dK][dK][d1Nal][dF][dT][d1Nal][dK][dNle]-NH2; N-terminus assumed)	28%
CCCC[C@@H](NC(=O)[C@@H](CCCCN)NC(=O)[C@@H](Cc1cccc2ccccc12)NC(=O)[C@@H](Cc1ccc(O)cc1)NC(=O)[C@@H](Cc1ccccc1)NC(=O)[C@@H](Cc1cccc2ccccc12)NC(=O)[C@@H](CCCCN)NC(=O)[C@H](N)CCCCN)C(N)=O [Compound 15, kk(1-nal)fy(1-nal)k(nle)-NH2] (H-[dK][dK][d1Nal][dF][dY][d1Nal][dK][dNle]-NH2; N-terminus assumed)	40%
CCCC[C@@H](NC(=O)[C@@H](CCCCN)NC(=O)[C@@H](Cc1cccc2ccccc12)NC(=O)[C@H](NC(=O)[C@@H](Cc1ccccc1)NC(=O)[C@@H](Cc1cccc2ccccc12)NC(=O)[C@@H](CCCCN)NC(=O)[C@H](N)CCCCN)C(C)C)C(N)=O [Compound 16, kk(1-nal)fv(1-nal)k(nle)-NH2] (H-[dK][dK][d1Nal][dF][dV][d1Nal][dK][dNle]-NH2; N-terminus assumed)	54%
CCCC[C@@H](NC(=O)[C@@H](Cc1cccc2ccccc12)NC(=O)[C@@H](Cc1cccc2ccccc12)NC(=O)[C@@H](CCCCN)NC(=O)[C@@H](Cc1ccccc1)NC(=O)[C@@H](Cc1cccc2ccccc12)NC(=O)[C@@H](CCCCN)NC(=O)[C@H](N)CCCCN)C(N)=O [Compound 17, kk(1-nal)fk(1-nal)(1-nal)(nle)-NH2] (H-[dK][dK][d1Nal][dF][dK][d1Nal][d1Nal][dNle]-NH2; N-terminus assumed)	89%
CCCC[C@@H](NC(=O)[C@@H](CCCC)NC(=O)[C@@H](Cc1cccc2ccccc12)NC(=O)[C@@H](CCCCN)NC(=O)[C@@H](Cc1ccccc1)NC(=O)[C@@H](Cc1cccc2ccccc12)NC(=O)[C@@H](CCCCN)NC(=O)[C@H](N)CCCCN)C(N)=O [Compound 19, kk(1-nal)fk(1-nal)(nle)(nle)-NH2] (H-[dK][dK][d1Nal][dF][dK][d1Nal][dNle][dNle]-NH2; N-terminus assumed)	56%
CCCC[C@@H](NC(=O)[C@@H](Cc1ccccc1)NC(=O)[C@@H](Cc1cccc2ccccc12)NC(=O)[C@@H](CCCCN)NC(=O)[C@@H](Cc1ccccc1)NC(=O)[C@@H](Cc1cccc2ccccc12)NC(=O)[C@@H](CCCCN)NC(=O)[C@H](N)CCCCN)C(N)=O [Compound 20, kk(1-nal)fk(1-nal)f(nle)-NH2] (H-[dK][dK][d1Nal][dF][dK][d1Nal][dF][dNle]-NH2; N-terminus assumed)	91%
CCCC[C@@H](NC(=O)[C@@H](CO)NC(=O)[C@@H](Cc1cccc2ccccc12)NC(=O)[C@@H](CCCCN)NC(=O)[C@@H](Cc1ccccc1)NC(=O)[C@@H](Cc1cccc2ccccc12)NC(=O)[C@@H](CCCCN)NC(=O)[C@H](N)CCCCN)C(N)=O [Compound 21, kk(1-nal)fk(1-nal)s(nle)-NH2] (H-[dK][dK][d1Nal][dF][dK][d1Nal][dS][dNle]-NH2; N-terminus assumed)	85%
CCCC[C@@H](NC(=O)[C@H](NC(=O)[C@@H](Cc1cccc2ccccc12)NC(=O)[C@@H](CCCCN)NC(=O)[C@@H](Cc1ccccc1)NC(=O)[C@@H](Cc1cccc2ccccc12)NC(=O)[C@@H](CCCCN)NC(=O)[C@H](N)CCCCN)[C@H](C)O)C(N)=O [Compound 22, kk(1-nal)fk(1-nal)t(nle)-NH2] (H-[dK][dK][d1Nal][dF][dK][d1Nal][dT][dNle]-NH2; N-terminus assumed)	66%
CCCC[C@@H](NC(=O)[C@@H](Cc1ccc(O)cc1)NC(=O)[C@@H](Cc1cccc2ccccc12)NC(=O)[C@@H](CCCCN)NC(=O)[C@@H](Cc1ccccc1)NC(=O)[C@@H](Cc1cccc2ccccc12)NC(=O)[C@@H](CCCCN)NC(=O)[C@H](N)CCCCN)C(N)=O [Compound 23, kk(1-nal)fk(1-nal)y(nle)-NH2] (H-[dK][dK][d1Nal][dF][dK][d1Nal][dY][dNle]-NH2; N-terminus assumed)	74%
CCCC[C@@H](NC(=O)[C@H](NC(=O)[C@@H](Cc1cccc2ccccc12)NC(=O)[C@@H](CCCCN)NC(=O)[C@@H](Cc1ccccc1)NC(=O)[C@@H](Cc1cccc2ccccc12)NC(=O)[C@@H](CCCCN)NC(=O)[C@H](N)CCCCN)C(C)C)C(N)=O [Compound 24, kk(1-nal)fk(1-nal)v(nle)-NH2] (H-[dK][dK][d1Nal][dF][dK][d1Nal][dV][dNle]-NH2; N-terminus assumed)	50%
